Test results from ChEMBL document CHEMBL4673176, “Virulence attenuating combination therapy: a potential multi-target synergy approach to treat Pseudomonas aeruginosa infections in cystic fibrosis patients” (RSC Med Chem, 2020).
One block for each compound: values may come before it.

Legend:
[1] = Inhibition of PqsR/PqsD in Pseudomonas aeruginosa PA14 assessed as reduction in biofilm formation by crystal violet assay
[2] = target: T1, Transcriptional regulator MvfR (Pseudomonas aeruginosa PA14) (UniProt A0A072ZLE6); assay: Inhibition of PqsR in Pseudomonas aeruginosa PA14 assessed as potentiation of tobramycin-mediated reduction in biofilm CFU at 10 uM incubated for 24 hrs relative to tobramycin alone
T1 sequence (whole entry): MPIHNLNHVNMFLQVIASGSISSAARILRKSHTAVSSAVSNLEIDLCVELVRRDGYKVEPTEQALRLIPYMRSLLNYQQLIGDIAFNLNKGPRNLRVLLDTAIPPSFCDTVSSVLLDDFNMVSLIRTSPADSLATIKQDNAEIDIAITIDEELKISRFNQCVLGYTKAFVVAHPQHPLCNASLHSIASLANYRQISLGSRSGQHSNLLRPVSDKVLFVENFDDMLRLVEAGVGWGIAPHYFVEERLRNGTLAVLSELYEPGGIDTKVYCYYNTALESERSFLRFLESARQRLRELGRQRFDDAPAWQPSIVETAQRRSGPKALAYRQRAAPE

[3] = target: T1, Transcriptional regulator MvfR (Pseudomonas aeruginosa PA14); assay: Inhibition of PqsR in Pseudomonas aeruginosa PA14 assessed as potentiation of meropenem-mediated reduction in biofilm CFU at 10 uM incubated for 24 hrs relative to meropenem alone
Pseudomonas aeruginosa [4] = assay: Inhibition of quorum sensing system in Pseudomonas aeruginosa MCC-2080 assessed as reduction in biofilm formation incubated for 24 hrs by crystal violet staining based UV-Vis spectrophotometric method relative to control
Pseudomonas aeruginosa [5] = assay: Antibacterial activity against Pseudomonas aeruginosa PAO1 infected in C57BL/6J mouse assessed as mouse survival at 100 uM administered intranasally at the time of infection and every 12 hrs and measured over 96 hrs; format: functional; details: PAO1, inhaled or nasal
[6] = Competitive inhibition of FAM-labelled PscF (69 to 85 residues) binding to Pseudomonas aeruginosa PscE/PscG by fluorescence polarization

IC50 [1]: 100 µM
SMILES: CS(=O)(=O)c1nccc(-n2cnnn2)n1

fold change (FC) [2]: 17
fold change (FC) [3]: 178
SMILES: O=C(CSc1nc2cc([N+](=O)[O-])ccc2[nH]1)Nc1ccc(Oc2ccccc2)cc1

IC85 (Pseudomonas aeruginosa [4]): 100 µM
SMILES: O=c1c(O)c(-c2ccccc2)oc2cc(O)cc(O)c12

SMILES: Cc1cccc2c3c(ccc12)C1=C(C(=O)C3=O)[C@@H](C)CO1 [DIHYDROTANSHINONE I]
survival at 100 µM (Pseudomonas aeruginosa [5]): 90%
IC50 [6]: 0.68 µM
